Marks after values point to notes of the source that are not given here.
Legend:
Wistar rats = assay: In vivo analgesia duration test using electrical stimulation (vocal response); design: species or system Wistar albino rats
Experimental: In vivo analgesia duration test was conducted using electrical stimulation testing, which was used as a means of determining analgesia in animals and humans (Grant et al., 2000). Testing for analgesia was done by a vocal response to electrical stimulation (beginning at 1 mA and increasing to a maximum of 8 mA) at the skin directly overlying the abdomen at the site of injection using a current generator. The abdominal hair of the experimental rats was shaved off, and they were screened prior to injection to determine their vocalization threshold, the current required to produce a vocalization response.
Animals will be treated in the following manner.
Polyherbal anaesthetic formulation, standard drug and 0.9% normal saline samples were injected subcutaneously into the abdomen of the experimental rats, followed by determination of analgesia at the fixed time intervals (5, 10, 20, 30, 40, 50, 60, and 70 min).

[1] = test system: rats (tail, noxious heat stimulus); assay: Tail-flick latency (TFL) test of local anaesthetic effect; type: in vivo
Experimental: Local anaesthetic effects of LA-containing formulations were evaluated by tail-flick latency (TFL) test using a tail-flick measuring device (Ugo Basile, Varese, italy) (Puglia et al., 2011; Ouchi et al., 2013; Caffarel-Salvador et al., 2015). A noxious heat stimulus was applied via a focused, radiant heat light source to the dorsal surface of the tail. Tail-flick test started 5 min after the local application of different preparations, and the test was conducted every 10 min for 120 min. TFL was converted to represent the maximum possible effect (MPE) according to the following equation: […]
The baseline TFL was calculated as the mean of three different measurements taken at 10-min intervals. Baseline latencies were typically ranged from 2.5 to 3.0 s. A maximum cut-off latency of 10s was set to avoid tissue damage in analgesic animals. Results are expressed as mean±standard of eight rats per group.

`CCN(CC)CC(=O)Nc1c(C)cccc1C` [lignocaine 2% solution, lignocaine] was tested, and the “Median duration of analgesia” value (Wistar rats; 0.05 mL subcutaneous injection into abdomen, rats) was 35 min, the “Percentage (%) of animals with analgesia” value (Wistar rats; 5 minutes after 0.05 mL s.c.) was 100.00** % and the “Percentage (%) of animals with analgesia” value (Wistar rats; 10 minutes after 0.05 mL s.c.) was 100.00** %. The “Percentage (%) of animals with analgesia” value (Wistar rats; 20 minutes after 0.05 mL s.c.) was 100.00** %, the “Percentage (%) of animals with analgesia” value (Wistar rats; 30 minutes after 0.05 mL s.c.) was 66.67** % and the “Percentage (%) of animals with analgesia” value (Wistar rats; 40 minutes after 0.05 mL s.c.) was 33.33** %. For the same compound, the “Percentage (%) of animals with analgesia” value (Wistar rats; 50 minutes after 0.05 mL s.c.) was 33.33** %, the “Percentage (%) of animals with analgesia” value (Wistar rats; 60 minutes after 0.05 mL s.c.) was 16.67** % and the “Percentage (%) of animals with analgesia” value (Wistar rats; 70 minutes after 0.05 mL s.c.) was 16.67** %. The “Duration of anaesthetic effect/activity after application” value [1] was “up to 30 min”.
